Columns and labels:
CHO-K1 cells = assay: Rituximab production by transduced CHO-K1 cells after addition of reagent (purified antibody amount, Western blotting of medium); assay type: cell-based, Chinese hamster; details: for production of the heavy and light chains of rituximab over time: medium at 24, 48, 72 hours
Procedure: Antibody Production: CHO-K1 cells were inoculated into a 12-well plate at 1×10^5 cells/well and then cultured. The next day, the culture medium having lentivirus-containing cells and a fresh culture medium were mixed at a ratio of 1:1, and treatment with this mixture was performed. Culture was performed for 24 hours. The culture medium was replaced with a new medium, and then treatment with puromycin and blasticidin at 10 μg/ml each was performed for selection. When 72 hours elapsed, the remaining cells were proliferated to obtain sufficient cells. For the cells thus obtained, the culture medium was replaced with a serum-free medium (EX-CELL CD CHO Serum-Free Medium for CHO Cells, Chemically Defined, Sigma, 14360C), and then treatment with Thiamet-G (Sigma Cat #SML0244) reagent at a concentration of 30 μM was performed. The cells were cultured in a CO2 incubator at 30° C. for 2 weeks. Then, the culture medium was collected and centrifuged at 1000 rcf for 3 minutes at 4° C. Only the supernatant was transferred separately into a clean tube, and the cells mixed with the supernatant were removed. The resultant was stored at 4° C.
Antibody Purification: the antibody-containing culture medium was treated with protein A agarose beads (Pierce Protein A Agarose, Therm Fisher Scientific, QE218104), and the reaction was allowed to proceed at 4° C. for 4 hours. The supernatant was removed by centrifugation, and washing with a washing buffer (0.1 M NaPO4, 0.15 M NaCl, pH 7.4) was performed five times. For the beads from which the supernatant was removed, elution was again performed 5 times with an elution buffer (0.2 M glycine, pH 3) in the same bead volume. […] Then, the total protein was quantified by the Bradford method.
To identify changes in protein amount of heavy and light chains of antibody caused by treatment with Thiamet-G, the following experiment was performed to check changes in antibody production over time after addition of Thiamet-G. The cell culture medium was collected when 24 hours, 48 hours, and 72 hours elapsed after addition of Thiamet-G at a concentration of 30 μM. […] The ECL solution was used to sensitize an x-ray film (FIG. 2), and production of the heavy and light chains at each time point was analyzed (FIG. 3).
During the antibody production process, the reagent OSMI-1 (Sigma #SML1621), which corresponds to an OGT inhibitor, at a concentration of 30 μM was added in place of Thiamet-G. Then, in the same manner as described above, the cell culture medium was collected when 24 hours, 48 hours, and 72 hours elapsed, and the production of the antibody and its heavy chain was analyzed through Western blotting (FIGS. 4-5). […]

[1] = test system: O-linked N-acetylglucosamine (O-GlcNAc) in rituximab; assay: Degree of binding of O-GlcNAc in rituximab (RL2 Western blotting, metabolic labeling); assay type: cell-based
Procedure: Based on the total protein amount, the isolated rituximab was subjected to electrophoresis on acrylamide gel so that proteins were separated by size. Then, the proteins were transferred to a nitrocellulose membrane. Portions other than the proteins electrically transferred to the nitrocellulose membrane were blocked with TBS-T containing 5% non-fat milk and 0.1% Tween 20 at room temperature for 1 hour. Incubation with O-linked N-acetylglucosamine (O-GlcNAc)-specific antibody (RL2-HRP) was performed at room temperature for 1 hour, and then washing with TBS-T was performed three times for 10 minutes each. The ECL solution was used to sensitize an x-ray film (FIG. 6A).
The ECL solution was used to sensitize an x-ray film (FIG. 6B).
The cell line was cultured for 72 hours in a serum-free RPMI medium treated with Thiamet-G (TMG) at 50 μM, and then harvested. Then, a cell lysate was prepared. […] Then, Coomassie blue staining was performed. The results are illustrated in FIGS. 7A-7B. Here, however, as a control, Mabthera (Mab) (Roche) was used.
To further identify differences in degree of binding of O-GlcNAc in antibody, a comparison of O-GlcNAc binding amount using metabolic labeling wax performed. […] The cell line was treated with Thiamet-G at 50 μM and Ac4GlcNAz (azido sugar) at 50 μM and cultured for 4 days. […] O-GlcNAc in the rituximab was subjected to metabolic labeling.

[2] = test system: O-linked N-acetylgalactosamine (O-GalNAc) in rituximab; assay: Degree of binding of O-GalNAc in rituximab (Jacalin lectin blotting, LC-MS/MS); assay type: cell-based
Procedure: The nitrocellulose membrane was blocked with PBS-T (Tween 0.5%) for 1 hour. Then, an O-GalNAc-binding lectin (biotinylated-Jacalin) was added thereto, and incubation was performed at room temperature for 1 hour. Washing with PBS-T was performed three times for 10 minutes each, and then incubation with streptavidin-HRP was performed at room temperature for 30 minutes. Washing with PBS-T was performed three times for 10 minutes each, and then the ECL solution was used to sensitize an x-ray film. […] Then, washing with TBS-T was performed three times for 10 minutes each. The ECL solution was used to sensitize an x-ray film (FIGS. 17A-17B).

[3] = test system: CHO cell line expressing rituximab; assay: Antibody production after Thiamet-G, cell line expressing rituximab; assay type: cell-based, Chinese hamster; details: 50 μM, 30° C.
Procedure: (§1) The next day, treatment with Thiamet-G at 50 μM in 3 ml of CHO medium was performed, and culture was performed at 30° C. for 2 weeks. Then, the medium was harvested. The same volume of medium was subjected to electrophoresis so that proteins were separated by size, and then the proteins were transferred to a PVDF membrane. Portions other than the proteins electrically transferred to the membrane were blocked with TBS-T containing 5% non-fat milk and 0.1% Tween 20 at room temperature for 1 hour. […] The ECL solution was used to sensitize an x-ray film (FIG. 19), and changes in production depending on treatment with Thiamet-G were measured for each antibody (FIG. 20).
as §1, with “7 days.” for “2 weeks.”, “(FIGS. 22-23).” for “(FIG. 19), and changes in production depending on treatment with Thiamet-G were measured for each antibody (FIG. 20).”

[4] = test system: CHO cell line expressing nivolumab; assay: Antibody production after Thiamet-G, cell line expressing nivolumab; assay type: cell-based, Chinese hamster; details: 50 μM, 30° C.
Procedure: as §1
as §1, with “7 days.” for “2 weeks.”, “(FIGS. 22-23).” for “(FIG. 19), and changes in production depending on treatment with Thiamet-G were measured for each antibody (FIG. 20).”

[5] = test system: CHO cell line expressing pembrolizumab; assay: Antibody production after Thiamet-G, cell line expressing pembrolizumab; assay type: cell-based, Chinese hamster; details: 50 μM, 30° C.
Procedure: as §1
as §1, with “7 days.” for “2 weeks.”, “(FIGS. 22-23).” for “(FIG. 19), and changes in production depending on treatment with Thiamet-G were measured for each antibody (FIG. 20).”

Ramos cells [6] = assay: Binding affinity of rituximab to Ramos cells by flow cytometry; details: 0.1-10 μg/ml, 4° C. 30 minutes, FACS; compared to the rituximab obtained without any treatment
Procedure: Then, incubation was performed at 4° C. for 30 minutes. Washing with PBS was performed once, and then treatment with anti-human Ig Fc-specific FITC-conjugated secondary antibody (109-095-008, 1:200 dilution; Jackson Laboratories), which was diluted […] with 50 μl PBS, was performed. Incubation was performed at 4° C. for 30 minutes. […] Analysis was performed with the FlowJo software (FIG. 14).

Ramos cells [7] = assay: Complement-dependent cytotoxicity with rabbit complement; assay type: cell-based; details: 0.1-10 ug/ml, rabbit complement 1:4, 2 hours; compared to the rituximab obtained without any treatment
Procedure: Complement-Dependent Cytotoxicity (complementary dependent cell death): Ramos cells were treated with 5 uM of calcein-AM in a serum-free RPMI, and then incubated at 37° C. for 30 minutes. The stained Ramos cells were dispensed in an amount of 1×10^5 cells/well.

| Molecule | production of the heavy and light chains of rituximab over time (CHO-K1 cells; 30 μM, Western blotting) | production of rituximab depending on treatment concentration (CHO-K1 cells; 0, 30 or 50 μM for 72 hours, Western blotting) | production of the purified rituximab antibody, increase versus no treatment (CHO-K1 cells; 30 μM, 30° C., 2 weeks, FIG. 1) | O-GlcNAc in rituximab, metabolic labeling ([1]; 50 μM with Ac4GlcNAz 50 μM, 4 days, streptavidin-HRP) | O-GlcNAc in rituximab ([1]; 50 μM, 2 weeks at 30° C., RL2-HRP, reducing and non-reducing conditions) | degree of binding of O-GlcNAc in rituximab ([1]; rituximab of Example 1, RL2-HRP Western blotting, same amount of rituximab) | binding of O-GalNAc to light chain residues of rituximab ([2]; LC-MS/MS, untreated rituximab has O-GalNAc on 7 light chain residues) | O-GalNAc bound to rituximab ([2]; biotinylated-Jacalin lectin blotting, same amount of rituximab) | production of the light chain of rituximab ([3]; 2 weeks) | production of rituximab ([3]; 7 days) | production of the light chain of nivolumab ([4]; 2 weeks) | production of nivolumab ([4]; 7 days) | production of the light chain of pembrolizumab ([5]; 2 weeks) | production of pembrolizumab ([5]; 7 days) | binding affinity (Ramos cells [6]) | complement-dependent cytotoxicity (Ramos cells [7]) |
| --- | --- | --- | --- | --- | --- | --- | --- | --- | --- | --- | --- | --- | --- | --- | --- | --- |
| COc1ccccc1[C@@H](NS(=O)(=O)c1ccc2[nH]c(=O)ccc2c1)C(=O)N(Cc1ccco1)Cc1cccs1 [OSMI-1] | extent of increase in production decreased as compared with the untreated negative control | – | – | – | – | – | – | – | – | – | – | – | – | – | – | – |
| CCN=C1N[C@@H]2[C@@H](O)[C@H](O)[C@@H](CO)O[C@@H]2S1 [Thiamet-G] | remarkably increased over time | increased proportionally | about 2 times | increased | increased | increased | decreased in 5 out of the 7 residues | decreased | increased remarkably by two or more times | increased remarkably | increased remarkably by two or more times | increased remarkably | increased remarkably by two or more times | increased remarkably | – | – |
| rituximab, which underwent O-linked glycosylation by treatment with Thiamet-G: rituximab (SEQ ID NO: 5 and 6) produced in CHO-K1 cells with Thiamet-G, O-GlcNAc bound to light chain serines 7, 12, 14, 181 | – | – | – | – | – | – | – | – | – | – | – | – | – | – | no difference | no difference |

Reference: patent publication US12590164B2, “Productivity-enhanced antibody and method for producing same” (Yonsei University BioHealth Technology Holdings, Inc., priority 2018, dated 2026)
